Key:
SK-BR-3 = test: Cytotoxicity against human SKBR3 cells after 72 hrs by celltiter-glo assay; assay type: functional, cell-based; settings: Homo sapiens, SK-BR-3, 72 h
[1] = molecular target: Heat shock protein HSP 90-beta (Homo sapiens, UniProt P08238); test: Binding affinity to human recombinant HSP90
MCF7 = test: Cytotoxicity against human MCF7 cells after 72 hrs by celltiter-glo assay; assay type: functional, cell-based; settings: MCF7, 72 h
SK-OV-3 = test: Cytotoxicity against human SKOV3 cells after 72 hrs by celltiter-glo assay; assay type: functional, cell-based; settings: SK-OV-3, 72 h
A549 = test: Cytotoxicity against human A549 cells after 72 hrs by celltiter-glo assay; assay type: functional, cell-based; settings: A549, 72 h
CCRF-CEM [2] = test: Cytotoxicity against human CCRF-CEM cells after 72 hrs by celltiter-96 aqueous one solution assay; assay type: functional, cell-based
CCRF-CEM [3] = test: Cytotoxicity against human paclitaxel-resistant CCRF-CEM cells after 72 hrs by celltiter-96 aqueous one solution assay; assay type: functional, cell-based
[4] = Dissociation constant, pKa of the compound; assay type: physicochemical
[5] = Chemical stability assessed as half life at pH 7.75; assay type: physicochemical; settings: buffer

Sequence of Heat shock protein HSP 90-beta (P08238 whole entry): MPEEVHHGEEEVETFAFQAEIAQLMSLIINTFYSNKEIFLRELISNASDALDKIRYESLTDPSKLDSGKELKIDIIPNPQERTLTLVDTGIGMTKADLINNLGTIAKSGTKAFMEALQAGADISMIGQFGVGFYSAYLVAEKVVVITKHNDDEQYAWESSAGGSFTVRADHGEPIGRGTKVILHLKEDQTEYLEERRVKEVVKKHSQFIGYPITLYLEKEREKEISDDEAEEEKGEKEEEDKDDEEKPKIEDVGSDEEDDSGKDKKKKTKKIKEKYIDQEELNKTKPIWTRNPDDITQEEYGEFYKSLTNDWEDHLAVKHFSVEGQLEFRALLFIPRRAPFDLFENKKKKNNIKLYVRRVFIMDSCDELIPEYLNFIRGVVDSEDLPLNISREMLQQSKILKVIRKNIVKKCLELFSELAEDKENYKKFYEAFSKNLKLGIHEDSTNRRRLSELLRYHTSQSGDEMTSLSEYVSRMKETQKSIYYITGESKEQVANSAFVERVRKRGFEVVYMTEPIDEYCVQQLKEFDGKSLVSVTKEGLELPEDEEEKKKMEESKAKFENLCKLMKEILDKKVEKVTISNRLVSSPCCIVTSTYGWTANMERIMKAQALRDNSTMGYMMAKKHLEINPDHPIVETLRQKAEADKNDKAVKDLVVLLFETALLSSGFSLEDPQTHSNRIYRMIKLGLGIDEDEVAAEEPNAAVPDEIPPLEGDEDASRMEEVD

| Compound | IC50 (SK-BR-3) | Kd [1] | IC50 (MCF7) | IC50 (SK-OV-3) | IC50 (A549) | IC50 (CCRF-CEM [2]) | IC50 (CCRF-CEM [3]) | pKa [4] | half-life [5] |
| --- | --- | --- | --- | --- | --- | --- | --- | --- | --- |
| CO[C@H]1[C@@H](OC)C[C@H](C)CC2=C(N)C(=O)C=C(NC(=O)/C(C)=C/C=C\[C@H](OC)[C@@H](OC(N)=O)/C(C)=C/[C@@H]1C)C2=O | 84 nM | 320 nM | 350 nM | 200 nM | 37 nM | 250 nM | 850 nM |  |  |
| CO[C@H]1[C@@H](OC)C[C@H](C)CC2=C(NCCN(C)C)C(=O)C=C(NC(=O)/C(C)=C/C=C\[C@H](OC)[C@@H](OC(N)=O)/C(C)=C/[C@@H]1C)C2=O | 11 nM | 800 nM | 50 nM | 43 nM | 23 nM | 58 nM | 390 nM |  |  |
| CO/N=C1/[C@@H](OC)C[C@H](C)CC2=C(NCCN(C)C)C(=O)C=C(NC(=O)/C(C)=C/C=C\[C@H](OC)[C@@H](OC(N)=O)/C(C)=C/[C@@H]1C)C2=O (stereo in doubt) | 550 nM | > 100000 nM |  |  |  |  |  |  |  |
| CO[C@H]1/C=C\C=C(/C)C(=O)NC2=CC(=O)C(NCCN(C)C)=C(C[C@@H](C)C[C@H](OC)[C@H](NCCN(C)C)[C@@H](C)/C=C(\C)[C@@H]1OC(N)=O)C2=O (stereo in doubt) | 460 nM | > 50000 nM |  |  |  |  |  | 6 |  |
| COC1=C2C[C@@H](C)C[C@H](OC)[C@H](OC(=O)CN)[C@@H](C)/C=C(\C)[C@H](OC(N)=O)[C@@H](OC)/C=C\C=C(/C)C(=O)NC(=CC1=O)C2=O (stereo in doubt) | 480 nM | > 25000 nM |  |  |  |  |  |  | 95 h |
| C=CCNC1=C2C[C@@H](C)C[C@H](OC)[C@H](OC(=O)CN)[C@@H](C)/C=C(\C)[C@H](OC(N)=O)[C@@H](OC)/C=C\C=C(/C)C(=O)NC(=CC1=O)C2=O (stereo in doubt) | 350 nM | > 25000 nM |  |  |  |  |  |  | 78 h |
| CO[C@H]1C[C@H](C)CC2=C(NCCF)C(=O)C=C(NC(=O)/C(C)=C/C=C\[C@H](OC)[C@@H](OC(N)=O)/C(C)=C/[C@H](C)C1=O)C2=O (stereo in doubt) | 170 nM | 2600 nM |  |  |  |  |  |  |  |
| C=CCNC1=C2C[C@@H](C)C[C@H](OC)[C@H](OC)[C@@H](C)/C=C(\C)[C@H](OC(N)=O)[C@@H](OC)/C=C\C=C(/C)C(=O)NC(=CC1=O)C2=O (stereo in doubt) | 280 nM | 2800 nM | 760 nM | 1300 nM | 360 nM | 2500 nM | 3500 nM |  |  |
| C=CCO/N=C1/[C@@H](OC)C[C@H](C)CC2=C(NCCN(C)C)C(=O)C=C(NC(=O)/C(C)=C/C=C\[C@H](OC)[C@@H](OC(N)=O)/C(C)=C/[C@@H]1C)C2=O (stereo in doubt) | 400 nM | > 100000 nM |  |  |  |  |  |  |  |
| CO[C@H]1/C=C\C=C(/C)C(=O)NC2=CC(=O)C(NCCN(C)C)=C(C[C@@H](C)C[C@H](OC)[C@H](NCCF)[C@@H](C)/C=C(\C)[C@@H]1OC(N)=O)C2=O (stereo in doubt) | 390 nM | > 50000 nM |  |  |  |  |  | 9 |  |
| CO[C@H]1[C@@H](OC)C[C@H](C)CC2=C(NCCN3CCC3)C(=O)C=C(NC(=O)/C(C)=C/C=C\[C@H](OC)[C@@H](OC(N)=O)/C(C)=C/[C@@H]1C)C2=O (stereo in doubt) | 130 nM | 1000 nM | 51 nM | 65 nM | 26 nM | 85 nM | 510 nM |  |  |
| CO[C@H]1[C@@H](OC)C[C@H](C)CC2=C(N3CCC3)C(=O)C=C(NC(=O)/C(C)=C/C=C\[C@H](OC)[C@@H](OC(N)=O)/C(C)=C/[C@@H]1C)C2=O (stereo in doubt) | 24 nM | 4000 nM | 63 nM | 110 nM | 29 nM | 420 nM | 2500 nM |  |  |
| C=CCNC1=C2C[C@@H](C)C[C@H](OC)[C@H](OC(=O)CCN)[C@@H](C)/C=C(\C)[C@H](OC(N)=O)[C@@H](OC)/C=C\C=C(/C)C(=O)NC(=CC1=O)C2=O (stereo in doubt) | 1800 nM | > 25000 nM |  |  |  |  |  |  | 130 h |
| CO[C@H]1C[C@H](C)CC2=C(NCCN(C)C)C(=O)C=C(NC(=O)/C(C)=C/C=C\[C@H](OC)[C@@H](OC(N)=O)/C(C)=C/[C@H](C)/C1=N\OCCN(C)C)C2=O (stereo in doubt) | 2500 nM | > 100000 nM |  |  |  |  |  |  |  |
| CO[C@H]1[C@@H](OC)C[C@H](C)CC2=C(NCCc3c[nH]cn3)C(=O)C=C(NC(=O)/C(C)=C/C=C\[C@H](OC)[C@@H](OC(N)=O)/C(C)=C/[C@@H]1C)C2=O (stereo in doubt) | 60 nM | 2000 nM | 160 nM | 320 nM | 420 nM | 510 nM | 3000 nM |  |  |
| CNCCNC1=C2C[C@@H](C)C[C@H](OC)[C@H](OC(=O)CN)[C@@H](C)/C=C(\C)[C@H](OC(N)=O)[C@@H](OC)/C=C\C=C(/C)C(=O)NC(=CC1=O)C2=O (stereo in doubt) | 340 nM | > 25000 nM |  |  |  |  |  |  | 74 h |
| CO[C@H]1/C=C\C=C(/C)C(=O)NC2=CC(=O)C(NCCN(C)C)=C(C[C@@H](C)C[C@H](OC)[C@H](NCCC(F)(F)F)[C@@H](C)/C=C(\C)[C@@H]1OC(N)=O)C2=O (stereo in doubt) | 830 nM | > 10000 nM |  |  |  |  |  | 8.9 |  |
| CO[C@H]1/C=C\C=C(/C)C(=O)NC2=CC(=O)C(NCCN(C)C)=C(C[C@@H](C)C[C@H](OC)[C@H](N)[C@@H](C)/C=C(\C)[C@@H]1OC(N)=O)C2=O (stereo in doubt) | 415 nM | > 25000 nM |  |  |  |  |  | 9.2 |  |
| CO[C@H]1C[C@H](C)CC2=C(NCCN(C)C)C(=O)C=C(NC(=O)/C(C)=C/C=C\[C@H](OC)[C@@H](OC(N)=O)/C(C)=C/[C@H](C)/C1=N\O)C2=O (stereo in doubt) | 95 nM | > 10000 nM |  |  |  |  |  |  |  |
| CO[C@H]1C[C@H](C)CC2=C(NCCN(C)C)C(=O)C=C(NC(=O)/C(C)=C/C=C\[C@H](OC)[C@@H](OC(N)=O)/C(C)=C/[C@H](C)/C1=N\OCC(=O)O)C2=O (stereo in doubt) | 2700 nM | > 25000 nM |  |  |  |  |  |  |  |
| COC1=C2C[C@@H](C)C[C@H](OC)[C@H](OC(=O)CCCN)[C@@H](C)/C=C(\C)[C@H](OC(N)=O)[C@@H](OC)/C=C\C=C(/C)C(=O)NC(=CC1=O)C2=O (stereo in doubt) | > 1000 nM | > 10000 nM |  |  |  |  |  |  | > 350 h |
| COC1=C2C[C@@H](C)C[C@H](OC)[C@H](OC(=O)CCN)[C@@H](C)/C=C(\C)[C@H](OC(N)=O)[C@@H](OC)/C=C\C=C(/C)C(=O)NC(=CC1=O)C2=O (stereo in doubt) | 1700 nM | > 25000 nM |  |  |  |  |  |  | 200 h |
| CO[C@H]1[C@@H](OC)C[C@H](C)CC2=C(NCCF)C(=O)C=C(NC(=O)/C(C)=C/C=C\[C@H](OC)[C@@H](OC(N)=O)/C(C)=C/[C@@H]1C)C2=O (stereo in doubt) | 130 nM | 2300 nM | 58 nM | 460 nM | 67 nM | 960 nM | 2700 nM |  |  |
| CO[C@H]1/C=C\C=C(/C)C(=O)NC2=CC(=O)C(NCCN(C)C)=C(C[C@@H](C)C[C@H](OC)[C@H](NCC(F)F)[C@@H](C)/C=C(\C)[C@@H]1OC(N)=O)C2=O (stereo in doubt) | 370 nM | 2900 nM |  |  |  |  |  | 7.5 |  |
| CO[C@H]1/C=C\C=C(/C)C(=O)NC2=CC(=O)C(NCCN(C)C)=C(C[C@@H](C)C[C@H](OC)[C@H](NCC(F)(F)F)[C@@H](C)/C=C(\C)[C@@H]1OC(N)=O)C2=O (stereo in doubt) | 270 nM | 4000 nM |  |  |  |  |  | 5.7 |  |
| CO[C@H]1[C@@H](OC)C[C@H](C)CC2=C(NCCN3CCCC3)C(=O)C=C(NC(=O)/C(C)=C/C=C\[C@H](OC)[C@@H](OC(N)=O)/C(C)=C/[C@@H]1C)C2=O (stereo in doubt) | 160 nM | 1000 nM | 76 nM | 69 nM | 62 nM | 160 nM | 520 nM |  |  |
| CO[C@H]1C[C@H](C)CC2=C(NCCN(C)C)C(=O)C=C(NC(=O)/C(C)=C/C=C\[C@H](OC)[C@@H](OC(N)=O)/C(C)=C/[C@H](C)C1=O)C2=O (stereo in doubt) | 100 nM | 1800 nM |  |  |  |  |  |  |  |
| CO[C@H]1C[C@H](C)CC2=C(NCCN(C)C)C(=O)C=C(NC(=O)/C(C)=C/C=C\[C@H](OC)[C@@H](OC(N)=O)/C(C)=C/[C@H](C)/C1=N\OCc1ccccc1)C2=O (stereo in doubt) | 480 nM | > 100000 nM |  |  |  |  |  |  |  |
| CO[C@H]1/C=C\C=C(/C)C(=O)NC2=CC(=O)C(NCCN(C)C)=C(C[C@@H](C)C[C@H](OC)[C@H](O)[C@@H](C)/C=C(\C)[C@@H]1OC(N)=O)C2=O (stereo in doubt) [ALVESPIMYCIN] | 24 nM |  | 230 nM | 220 nM | 68 nM | 540 nM | 2500 nM |  |  |

From ChEMBL document CHEMBL1138518 (J Med Chem, 2009)
